Experimental data taken from patent US6617491B2, “Use of drosophila melanogaster as a model for screening psychostimulant plant materials” (Council of Scientific & Industrial Research, priority 2001, dated 2003).

Tests used:
Sh^5eag^1 mutant flies [1] = test: Time of recovery from diethyl ether anesthesia in individual fly pairs; type: in vivo, Drosophila melanogaster; conditions: NF+PS; PS 1 mg/ml in fly food; 10 fly pairs
Procedure: Standard Drosophila manipulation methods were followed. Cultures were grown on a medium containing maize powder, sugar, yeast and Nipagin. Flies were maintained and further manipulated at room temperature. Experimental conditions were kept identical throughout. The double mutant Sh^5eag^1 was generated using standard methods of Drosophila genetics. Male flies of similar age were used in the experiment. In routine screening, flies were anesthetized in various groups and then allowed to recover in an identical manner. For further testing, individual fly pairs were used as described below. Following different treatments, flies were first anesthetized with diethyl ether and healthy looking individuals shifted to a number of empty vials in such a way that each vial received two flies, one from each treatment. Before shifting, flies from one of the two treatments were marked on their wings for the purpose of identification. Flies were allowed to recover fully. After an hour, each fly pair was subjected to the following test. […]
To understand the above activity, and others, if any, of the Acorus extracts in Drosophila in a quantitative manner, following experiments were carried out using acetone extract as the representative substance. […] First, time of recovery from ether anesthesia was measured in individual flies. […] Following this, recovery time was determined as described earlier. […]

Sh^5eag^1 mutant flies [2] = conditions: from Sharma and Kumar, Ser. No. 09/789,525; cited from earlier work
Sh^5eag^1 mutant flies [3] = test: Spontaneous locomotor activity in flies, pair-wise visual comparison of vials on a scale of '0', '+' or '−'; type: in vivo, Drosophila melanogaster; conditions: baseline NF flies; 73 comparisons; 5th day; 20 flies per vial
Procedure: To further understand the activity profile of the plant material, flies were treated with either NF or NF containing either ethanol alone (NF+ET) or ethanol and extract both (NF+ET+EX). The ethanol concentration used was 20% (v/v). Other details were as described earlier. On 5th day, spontaneous locomotor activity in flies was pair-wise compared either between NF and NF+ET or between NF+ET and NF+ET+EX. Two vials representing the two treatments were kept side by side in an inverted position. There were 20 flies in each vial. The flies' activity in a group was visually estimated on a scale of ‘0’, ‘+’ or ‘−’, as described below. To compare between NF and NF+ET, the sum total of activity seen in the vial containing NF flies was considered ‘0’. The activity in the NF+ET vial was then given a ‘0’, ‘+’ or ‘−’, depending on whether it is equal, more or less than the activity observed in NF vial respectively. The process was repeated 73 times spanning an entire day. In this test, ethanol treated flies received 23 ‘0’s, no ‘+’ and 50 ‘−’s. […] NF+
ET and NF+ET+EX flies were similarly compared, with the activity in the former serving as baseline, i.e., ‘0’. In this test, NF+ET+EX received no ‘0’, 73 ‘+’5 and no ‘−’. […] First, ethanol decreases spontaneous locomotor activity in flies. Second, Acorus extract increases spontaneous locomotor activity in flies treated with ethanol, a CNS depressant drug.
Having observed a stimulant activity of Acorus extract in flies under the influence of alcohol, the question whether the extract also stimulates normal flies, i.e., individuals not under the drug's influence, was asked. To answer this, spontaneous locomotor activity in NF and NF+EX flies were compared, as described above. NF flies' activity served as the baseline. In the test conducted the extract treated flies received 18 ‘0’5 […] and 2 ‘−’s.

CCC1(c2ccccc2)C(=O)NC(=O)NC1=O [phenobarbital sodium]
recovery time from ether anesthesia (Sh^5eag^1 mutant flies [1]): 11.3 ± 2.38 min
effect on recovery from ether anesthesia in flies (Sh^5eag^1 mutant flies [2]): causes a delay in recovery

CCO [ethanol]
spontaneous locomotor activity: number of '0's (times equally active) (Sh^5eag^1 mutant flies [3]): 23
spontaneous locomotor activity: number of '+'s (times more active) (Sh^5eag^1 mutant flies [3]): no
spontaneous locomotor activity: number of '−'s (times less active) (Sh^5eag^1 mutant flies [3]): 50
